Like-named read-outs stand apart in the source and are kept apart here.
Columns and labels:
Bovine chymotrypsin = Bovine chymotrypsin (Bos taurus, UniProt P00766); test: Inhibition of chymotrypsin, Ki; format: biochemical
human plasma kallikrein = biological target: T1, human plasma kallikrein (Homo sapiens, UniProt P03952); test: Inhibition of human plasma kallikrein, Ki; format: biochemical
T1 construct: purchased Sigma (St. Louis, Mo.)
Method: (§1) After 5 min. at 37° C., 15 μl of 2 mM GPK-AMC was added and the change in fluorescence (as above) was monitored. […] After 5 min. incubation at 37° C., 25 μl of 20 mM GPK-AMC was added and the change in fluorescence monitored. […] After 5 min. at 37° C. 15 μl of 20 mM PFR-AMC was added and the change in fluorescence monitored.
(§2) After 30 min. incubation at 37° C., 25 μl of 20 mM GPK-AMC was added and the change in fluorescence monitored. […] After 30 min. at 37° C., 5 μl of 20 mM PFR-AMC was added and the change in fluorescence monitored.

human plasmin = biological target: T2, human plasmin (Homo sapiens, UniProt P00747); test: Inhibition of human plasmin, Ki; format: biochemical; details: Table 3; Human Plasmin (50 pM); GPK-AMC (0.5 mM)
T2 construct: purchased Sigma (St. Louis, Mo.)
T2 sequence (P00747 581-810 limits assumed): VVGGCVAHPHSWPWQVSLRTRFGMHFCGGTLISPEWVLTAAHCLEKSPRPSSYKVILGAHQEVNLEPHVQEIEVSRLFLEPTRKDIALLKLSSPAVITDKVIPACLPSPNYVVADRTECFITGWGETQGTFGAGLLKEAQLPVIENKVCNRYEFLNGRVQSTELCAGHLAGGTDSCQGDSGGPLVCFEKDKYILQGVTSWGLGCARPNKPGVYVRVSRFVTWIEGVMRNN
T2 sequence (P00747 97-580 partner limits assumed): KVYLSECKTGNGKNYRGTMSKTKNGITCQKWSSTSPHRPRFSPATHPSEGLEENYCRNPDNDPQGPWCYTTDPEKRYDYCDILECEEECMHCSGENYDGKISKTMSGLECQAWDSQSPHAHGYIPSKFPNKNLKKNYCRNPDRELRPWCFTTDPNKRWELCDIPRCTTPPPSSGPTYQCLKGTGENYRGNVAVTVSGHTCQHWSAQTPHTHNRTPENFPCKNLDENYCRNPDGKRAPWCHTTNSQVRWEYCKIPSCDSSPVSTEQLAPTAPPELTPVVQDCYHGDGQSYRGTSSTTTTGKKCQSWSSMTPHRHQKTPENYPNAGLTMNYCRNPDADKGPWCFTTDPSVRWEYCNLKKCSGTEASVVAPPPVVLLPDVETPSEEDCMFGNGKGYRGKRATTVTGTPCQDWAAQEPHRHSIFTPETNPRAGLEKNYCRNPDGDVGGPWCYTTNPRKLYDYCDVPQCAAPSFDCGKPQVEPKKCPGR
Method: as §1, §2

[1] = biological target: T3, human neutrophil elastase (Homo sapiens, UniProt P08246); test: Inhibition of human neutrophil elastase, Ki (Dixon plots); format: biochemical; details: Table 3; Human Neutrophil Elastase (19 nM)
T3 sequence (P08246 30-267): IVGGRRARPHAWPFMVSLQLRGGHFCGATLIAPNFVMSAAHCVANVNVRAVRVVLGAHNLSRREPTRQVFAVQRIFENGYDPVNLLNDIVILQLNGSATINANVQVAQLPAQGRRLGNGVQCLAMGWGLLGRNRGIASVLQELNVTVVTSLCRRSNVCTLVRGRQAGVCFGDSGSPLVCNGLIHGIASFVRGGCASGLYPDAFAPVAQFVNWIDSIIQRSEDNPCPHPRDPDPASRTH
Method: […] Ki values were determined from Dixon plots of the form 1/V versus performed at two different substrate concentrations (Dixon et al., 1979).

human tissue kallikrein = biological target: T4, human tissue kallikrein (Homo sapiens, UniProt P06870); test: Inhibition of human tissue kallikrein, Ki; format: biochemical; details: Table 3; Human Tissue Kallikrein (0.35 nM); PFR-AMC (10 μM)
T4 construct: purchased Bayer, Germany
T4 sequence (P06870 25-262): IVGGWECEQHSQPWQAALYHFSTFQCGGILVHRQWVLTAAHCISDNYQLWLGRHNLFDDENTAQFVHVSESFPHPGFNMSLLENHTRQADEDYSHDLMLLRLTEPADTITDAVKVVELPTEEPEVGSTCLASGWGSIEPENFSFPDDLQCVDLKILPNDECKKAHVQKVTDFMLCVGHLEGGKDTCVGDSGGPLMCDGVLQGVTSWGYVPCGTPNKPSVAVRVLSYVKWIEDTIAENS
Method: After 5 min. at 37° C., 5 ul of 2 mM PFR-AMC was added achieving 10 uM final and the change in fluorescence monitored. The Km for PFR-AMC with human tissue kallikrein under the conditions employed was 5.7 uM.
After 5 min. at 37° C., 5 μl of 2 mM PFR-AMC was added and the change in fluorescence monitored.
After 5 min. at 37° C., 5 ul of 2 mM PFR-AMC was added achieving 10 uM final concentration and the change in fluorescence monitored.

human factor Xa = biological target: T5, human factor Xa (Homo sapiens, UniProt P00742); test: Inhibition of human factor Xa; format: biochemical; details: Table 3; factor Xa (0.87 nM); LGR-AMC (0.6 mM)
T5 construct: purchased American Diagnostica, Inc, Greenwich, Conn
T5 sequence (P00742 235-488 limits assumed): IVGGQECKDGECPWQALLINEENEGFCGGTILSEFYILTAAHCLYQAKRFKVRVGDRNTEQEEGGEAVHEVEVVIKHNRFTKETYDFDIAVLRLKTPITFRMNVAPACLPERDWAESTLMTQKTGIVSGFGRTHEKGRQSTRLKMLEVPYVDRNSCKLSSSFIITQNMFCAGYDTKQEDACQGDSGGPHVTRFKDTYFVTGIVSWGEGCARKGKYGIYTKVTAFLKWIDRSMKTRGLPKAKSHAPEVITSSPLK
T5 sequence (P00742 41-179 partner limits assumed): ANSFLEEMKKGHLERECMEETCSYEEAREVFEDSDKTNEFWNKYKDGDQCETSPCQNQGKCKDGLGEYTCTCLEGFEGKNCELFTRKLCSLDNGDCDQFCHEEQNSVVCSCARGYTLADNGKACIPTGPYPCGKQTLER
Method: (§3) After 5 min. at 37° C., 30 ul of 20 mM LGR-AMC (Sigma) was added and the change in fluorescence monitored. […] After 5 min. at 37° C., 35 ul of 20 mM GGR-AMC (Sigma) was added and the change in fluorescence monitored.

human urokinase = biological target: T6, human urokinase (Homo sapiens, UniProt P00749); test: Inhibition of human urokinase, Ki; format: biochemical; details: Table 3, GGR-AMC (0.7 mM)
T6 construct: purchased Sigma
Method: as §3

[2] = test system: human CF bronchial epithelial cells; test: Short circuit current (Isc) in cultured human cystic fibrosis bronchial epithelial cells; format: cell-based
Method: HBE cells were isolated from CF patient lung transplant tissue and grown in collagen coated flasks for one week. The cells were then passaged and seeded onto collagen coated Costar Transwell filters (0.33 cm2) and grown in DMEM/F12 media supplemented with 2% Ultroser G. Cells were grown at an air liquid interface and used 2 to 4 weeks after seeding:
Cells on the Transwell filters were mounted in modified Costar Ussing chambers and studied under Isc conditions. […] Isc was recorded for 100 minutes and then the apical bath fluid was exchanged with fresh buffer. Trypsin (100 BAEE units/mL) was added to the apical side and Isc recorded for 10 minutes. Amiloride (10 uM) was then added to the apical side and Isc was recorded for a further 10 minutes.
HBE cells were isolated from CF patient lung transplant tissue and grown in collagen coated flasks for one week. The cells were then passaged and seeded onto collagen coated Costar Transwell filters (0.33 cm^2) and grown in DMEM/F12 media supplemented with 2% Ultroser G. Cells were grown at an air liquid interface and used 2 to 4 weeks after seeding.
Cells on the Transwell filters were mounted in modified Costar Ussing chambers and studied under Isc conditions. […] Isc was recorded for 90 minutes and then amiloride (10 uM) was added and Isc was recorded for a further 10 minutes. The apical bath fluid was then exchanged with fresh buffer, and Isc was recorded for a further 15 minutes. Trypsin (1 uM) was added to the apical side and Isc recorded for 15 minutes. Amiloride (10 uM) was then added to the apical side and Isc was recorded for a further 10 minutes.

guinea pig trachea [3] = test: Tracheal mucus velocity (TMV) in the guinea-pig; format: in vivo
Method: The aim of this study was to investigate the effect of the Kunitz family serine protease inhibitor Bikunin on guinea-pig tracheal mucus velocity 1.5 hours post treatment. This agent was delivered into the cephalad trachea by topical instillation. TMV was monitored 1.5 hours later for 60 mins. The procedure used in this Example is described in Newton et al. in “Cila, Mucus and Mucociliary Interactions,” Ed., Baum, G. L. et al., Marcel Dekker, New York, 1998; Newton et al., Ped. Pulm. S17, Abs. 364, 1998). […]
TMV was monitored using a lead collimated miniature Beta particle detector probe arranged to detect the radioactivity emitted from an injected aliquot of ^32P-labelled Saccharomyces cerevisiae as it was transported on the tracheal mucociliary layer of an anaesthetized guinea pig (Newton and Hall 1998) FIG. 16(a) illustrates the arrangement of the syringe and beta probe. FIG. 16(b) illustrates the counts detected by the probe as the ^32P-labelled S. cerevisiae is transported along the tracheal mucociliary layer. […]
The aim of this comparative study was to investigate the effect of hypertonic saline (14.4%×5 min) on guinea-pig tracheal mucus velocity. […] TMV was monitored immediately and every 15 minutes for 30 minutes. […]

guinea pig trachea [4] = details: 10 mM, 20 minute aerosol; 15 minutes after; n=8 (Newton et al 1998); cited from earlier work
diseased patients = details: inhalation; diseased patients (Robinson et al 1997; App et al 1990); cited from earlier work
[5] = test system: human bronchial epithelial cell (HBE); test: Short circuit current (Isc) in cultured human bronchial epithelial (HBE) cells, Ussing chamber; format: cell-based; details: for sodium current: 0.5 to 5 ug/mL (0.5, 1.5 and 5 ug/mL), 90 minute period
Method: Tertiary HBE cell monolayer grown to confluence were mounted in modified Ussing chambers, immersed in Krebs buffer (KBR) solution and bubbled with 95% O2/5% CO2 warmed to 37 C.
Cells were left to equilibrate for 20 minutes before calibrating for background noise and fluid resistance. Transepithelial potential difference was then clamped to 0 mV using a WPI EVC 4000 voltage clamp. Ag/AgCl electrodes were used to monitor Isc. […] Once a response to amiloride was seen, it was washed out with KBR solution. […] 90 minutes following agent treatment, amiloride (10 uM) was added. Once the current was stable forskolin (10 uM) and then bumetanide (100 uM) was added.
Tertiary HBE cell monolayers grown to confluence were mounted in modified Ussing chambers, immersed in Krebs buffer (KBR) solution and bubbled with 95% O2/5% CO2 warmed to 37 C.
Cells were left to equilibrate for 20 minutes before calibrating for background noise and fluid resistance. Transepithelial potential difference was then clamped to 0 mV using a WPI EVC 4000 voltage clamp. Ag/AgCI electrodes were used to monitor Isc. […] Once a response to amiloride was seen, it was washed out with KBR solution. […] 90 minutes following agent treatment, amiloride (10 uM) was added.

A6 cells = details: exposure of the apical membrane (Vallet et al 1997; Chraibi et al 1998), cited from earlier work
allergic sheep = details: cited from earlier work

T1 sequence (P03952 391-638 limits assumed): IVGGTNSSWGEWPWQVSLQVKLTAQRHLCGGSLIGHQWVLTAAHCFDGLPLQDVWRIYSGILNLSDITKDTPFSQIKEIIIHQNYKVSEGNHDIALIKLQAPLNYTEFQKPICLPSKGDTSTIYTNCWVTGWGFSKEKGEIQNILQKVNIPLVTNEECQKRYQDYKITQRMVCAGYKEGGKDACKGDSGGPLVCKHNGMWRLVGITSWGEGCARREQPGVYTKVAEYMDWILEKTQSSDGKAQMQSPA
T1 sequence (P03952 20-390 partner limits assumed): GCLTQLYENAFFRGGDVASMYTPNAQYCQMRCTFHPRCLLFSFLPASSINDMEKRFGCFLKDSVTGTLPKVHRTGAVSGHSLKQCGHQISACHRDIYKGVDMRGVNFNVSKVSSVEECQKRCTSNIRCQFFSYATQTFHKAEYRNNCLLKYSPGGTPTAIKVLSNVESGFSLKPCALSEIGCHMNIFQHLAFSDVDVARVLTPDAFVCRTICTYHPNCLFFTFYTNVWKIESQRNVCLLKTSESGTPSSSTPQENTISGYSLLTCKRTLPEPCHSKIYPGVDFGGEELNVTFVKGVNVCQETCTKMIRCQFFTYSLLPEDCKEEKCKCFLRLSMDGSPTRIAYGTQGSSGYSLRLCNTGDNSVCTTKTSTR

## CC[C@H](C)[C@@H]1NC(=O)[C@H](Cc2ccccc2)NC(=O)[C@H](CC(N)=O)NC(=O)[C@H](CC(N)=O)NC(=O)[C@@H]2CSSC[C@@H]3NC(=O)[C@H](C)NC(=O)[C@H](CCC(=O)O)NC(=O)[C@H](CCC(=O)O)NC(=O)[C@H](CO)NC(=O)[C@H](CCCNC(=N)N)NC(=O)[C@H](Cc4ccc(O)cc4)NC(=O)[C@H](CO)NC(=O)[C@H](CC(N)=O)NC(=O)[C@H](CCCCN)NC(=O)[C@H](CC(N)=O)NC(=O)CNC(=O)[C@H](CCCNC(=N)N)NC(=O)[C@H](CSSC[C@H](NC(=O)[C@@H]4CCCN4C(=O)CNC(=O)[C@H]([C@@H](C)O)NC(=O)[C@H](C(C)C)NC(=O)[C@H](C)NC(=O)[C@H](CC(N)=O)NC(=O)[C@H](C)NC(=O)[C@H]([C@@H](C)O)NC(=O)[C@@H](NC(=O)[C@H](Cc4ccc(O)cc4)NC(=O)[C@H](CCC(=O)O)NC(=O)[C@H](CCC(=O)O)NC(=O)[C@@H](N)Cc4ccc(O)cc4)CSSC[C@@H](C(=O)N[C@@H](Cc4ccccc4)C(=O)N[C@@H](CCCNC(=N)N)C(=O)N[C@@H](CCC(N)=O)C(=O)O)NC(=O)[C@H](CCCNC(=N)N)NC(=O)[C@H](CC(C)C)NC(=O)[C@H](CCSC)NC3=O)C(=O)N[C@@H](CCCNC(=N)N)C(=O)N[C@@H](C)C(=O)N[C@@H](CO)C(=O)N[C@@H](Cc3ccccc3)C(=O)N3CCC[C@H]3C(=O)N[C@@H](CCCNC(=N)N)C(=O)N[C@@H](Cc3c[nH]c4ccccc34)C(=O)N[C@@H](Cc3ccc(O)cc3)C(=O)N[C@@H](Cc3ccccc3)C(=O)N[C@@H](CC(=O)O)C(=O)N[C@@H](C(C)C)C(=O)N[C@@H](CCC(=O)O)C(=O)N[C@@H](CCCNC(=N)N)C(=O)N[C@@H](CC(N)=O)C(=O)N[C@@H](CO)C(=O)N2)NC(=O)CNC(=O)CNC(=O)[C@H](Cc2ccc(O)cc2)NC1=O [Bikunin (102-159)]
Bovine chymotrypsin; Table 3, Chymotrypsin (5 nM), AAPF-pNA (0.08 mM)
  Ki: 0.24 nM
Bovine chymotrypsin; Table 4A, Bovine chymotrypsin (5 nM)
  Ki: 0.2 nM
Human plasma kallikrein; Table 3, Human Plasma Kallikrein (2.5 nM), PFR-AMC (0.3 mM)
  Ki: 0.3 nM
Human plasma kallikrein; Table 4A, Human Plasma Kallikrein (2.5 nM)
  Ki: 0.3 nM
Human plasma kallikrein; Table 4B, Human Plasma Kallikrein ([…] nM)
  Ki: 0.7 nM
Human plasmin
  Ki: 1.8 nM
[1]
  Ki: 323 nM
Human tissue kallikrein
  Ki: 0.13 nM
Human factor Xa
  Ki: 274 nM
Human urokinase
  Ki: 11000 nM

## N=C(N)NC(=O)c1nc(Cl)c(N)nc1N [amiloride, reference compound]
[2]; 10 uM, apical, after trypsin
  Isc: inhibited the majority of the current
Guinea pig trachea [3]; 10 mM x 20 mins aerosol, 15 minutes after aerosol, FIG. 19
  TMV: statistically significant increase in TMV
Guinea pig trachea [4]
  TMV: 8.1±0.3 mm.min^−1
Diseased patients
  MCC: significantly increase MCC

## Aprotinin
[5]; 5 ug/mL, FIG. 20
  sodium short circuit current: decrease sodium short circuit current
[2]; 20 ug/mL, 90 minutes after apical application
  Isc: decreases sodium current
[2]; 20 ug/mL, 90 minutes after apical application, listed as aprotinin
  Isc: inhibited Isc
[2]; 1 mg/mL in PBS, over a 100 minute period, FIG. 21
  Isc: inhibited Isc
A6 cells
  transepithelial Na+ transport: reduce transepithelial Na^+ transport
A6 cells; listed as aprotinin
  transepithelial Na+ transport: reduced transepithelial Na^+ transport

## Des Pro2-Ser10-Arg15-Asp24-Thr26-Glu31-Asn41-Glu53-Aprotinin [Aprotinin double mutein]
[5]; FIG. 20
  sodium current: dose dependently inhibited sodium current
[5]; FIG. 20, listed as aprotinin double mutein
  sodium current: decrease sodium short circuit current
Guinea pig trachea [3]; 10 ug, relative to HBSS, 1.5 to 2.5 hours following administration, FIG. 26
  TMV: increased TMV

## α1-PI: serpin-family serine protease inhibitor alpha(1)-protease inhibitor
[5]; 50 ug.ml−1, normal HBE cells, further study
  effect on Na+ Isc: without a significant effect
Allergic sheep; 10 mg given 30 min before or 1 h after antigen challenge, 6 h after challenge
  antigen-induced reduction in TMV: attenuated antigen-induced reduction in TMV
Allergic sheep; administered on its own (no antigen challenge), over a 6 h period
  baseline TMV: no effect on baseline TMV
Allergic sheep; given 6 h after antigen challenge, at 24 h after challenge
  antigen-induced fall in TMV: significant reversal of the antigen-induced fall in TMV
